Experimental data as given in patent publication US6787569B1, “Therapeutic guanidines” (Cambridge NeuroScience, Inc., priority 1994, dated 2004).
Where a name gives a salt, the structure may show the parent alone.

system: depolarization-induced 3H-glutamate release from brain nerve terminals; assay: Inhibition of 3H-glutamate release, high [K+] depolarization, rapid superfusion of synaptosomes; type: biochemical; settings: 0.1 μM compound, rat brain synaptosomes

| Structure (SMILES) | % Inhibition of ^3H-Glu Rel @ 0.1 μM |
| --- | --- |
| CCC(C)c1ccc(N(Cc2ccc(C(C)(C)C)cc2)C(=N)Nc2ccc(Cl)cc2)cc1.Cl (stereo not drawn) [Example 86, N-(4-sec-Butylphenyl)-N-(4-tert-butylbenzyl)-N′-(4-chlorophenyl)guanidine.HCl] | 16% |

same assay, conditions: 0.3 μM compound, rat brain synaptosomes

| Structure (SMILES) | % Inhibition of ^3H-Glu Rel @ 0.3 μM |
| --- | --- |
| CCC(C)c1ccc(N(Cc2ccc(C(C)(C)C)cc2)C(=N)N(C)c2ccccc2)cc1.Cl (stereo not drawn) [Example 88, N-(4-sec-Butylphenyl)-N-(4-tert-butylbenzyl)-N′-(phenyl)-N′-methylguanidine.HCl] | 77% |
| CCC(C)c1ccc(N(Cc2ccc(C(C)(C)C)cc2)C(=N)Nc2ccc(Cl)c(Cl)c2)cc1.Cl (stereo not drawn) [Example 89, N-(4-sec-Butylphenyl)-N-(4-tert-butylbenzyl)-N′-(3,4-dichlorophenyl)guanidine.HCl] | 21% |
| CCCCOc1ccc(NC(=N)Nc2ccc(C(C)(C)C)cc2)cc1OCCCC.O=C(O)C(=O)O [Example 107, N-(3,4-Bis-butyloxyphenyl)-N′-(4-tert-butylphenyl)guanidine.oxalate] | 34% |
| CS(=O)(=O)O.N=C(Nc1ccc(N=Nc2ccccc2)cc1)Nc1cccc(OCc2ccccc2)c1 [Example 140, N-(3-Benzyloxyphenyl)-N′-(4-phenylazophenyl)guanidine.mesylate] | 44% |
| CN(C(=N)Nc1cccc(OCc2ccccc2)c1)c1ccc(OCc2ccccc2)cc1 [N-(3-benzyloxyphenyl)-N′-(4-benzyloxyphenyl)-N′-methylguanidine] | 55% |
| Br.N=C(Nc1ccc2c(c1)CCCC2)Nc1ccc2c(c1)CCCC2 [Example 111, N,N′-Bis-(6-tetralinyl)guanidine.HBr] | 61% |
| CN(C(=N)Nc1ccc(OCc2ccccc2)cc1)c1ccc(OCc2ccccc2)cc1.CS(=O)(=O)O [Example 132, N,N′-Bis(4-benzyloxyphenyl)-N′-methylguanidine.mesylate] | 22% |
| CCCCc1ccc(NC(=N)N(C)c2ccc(CCCC)cc2)cc1.Cl [Example 101, N,N′-Bis-(4-butylphenyl)-N-methylguanidine.HCl] | 35% |
| CCCCCN(C(=N)Nc1ccc(C(C)CC)cc1)c1ccc(C(C)CC)cc1.Cl (stereo not drawn) [Example 46, N,N′-(sec-Butylphenyl)-N′-(n-pentyl)guanidine.HCl] | 65% |
| CC(C)(C)c1ccc(COc2cccc(NC(=N)Nc3ccc(C(C)(C)C)cc3)c2)cc1.CS(=O)(=O)O [Example 99, N-(3-(4-tert-Butylbenzyloxy)phenyl)-N′-(4-tert-butylphenyl)guanidine.mesylate] | 20% |
| CN(C(=N)Nc1ccc(OCc2ccccc2)cc1)c1ccc(C(C)(C)C)cc1.CS(=O)(=O)O [Example 98, N-(4-Benzyloxyphenyl)-N′-methyl-N′-(4-tert-butylphenyl)guanidine.mesylate] | 28% |
| CCC(C)c1ccc(N(Cc2ccc(C(C)(C)C)cc2)C(=N)N2CCC(Cc3ccccc3)CC2)cc1.CS(=O)(=O)O (stereo not drawn) [Example 78] | 22% |
| CCCCOc1ccc(N(Cc2ccc(C(C)(C)C)cc2)C(=N)NC2CCNCC2)cc1.Cl [Example 77, N-(4-Butoxyphenyl)-N-(4-tert-butylbenzyl)-N′-(4-piperidinyl)guanidine.HCl] | 44% |
| CCC(C)c1ccc(N(Cc2ccc(C(C)(C)C)cc2)C(=N)Nc2ccc(Cl)cc2)cc1.Cl (stereo not drawn) [Example 86, N-(4-sec-Butylphenyl)-N-(4-tert-butylbenzyl)-N′-(4-chlorophenyl)guanidine.HCl] | 45% |

same assay, conditions: 1 μM compound, rat brain synaptosomes

| Structure (SMILES) | % Inhibition of ^3H-Glu Rel @ 1 μM |
| --- | --- |
| N=C(N)N(Cc1ccc(OC(F)(F)F)cc1)c1ccc2c3c(cccc13)CC2 [Example 59, N-(5-Acenaphthyl)-N-(4-trifluaromethoxybenzyl)guanidine.HCl] | 44% |
| Cl.N=C(N)N(Cc1cccc(Oc2ccccc2)c1)c1ccc2c3c(cccc13)CC2 [Example 53, N-(5-Acenaphthyl)-N-(3-phenoxybenzyl)guanidine.HCl] | 37% |
| Br.N=C(Nc1cccc(-c2ccccc2)c1)Nc1cccc(-c2ccccc2)c1 [Example 30, N,N′-Bis(3-biphenyl)guanidine.HBr] | 25% |
| Cl.N=C(Nc1ccc2c3c(cccc13)CC2)NC(Cc1ccccc1)c1ccccc1 (stereo not drawn) [Example 41, N-(5-Acenaphthyl)-N′-(1,2-diphenylethyl)guanidine.HCl] | 52% |
| Cl.N=C(N)N(Cc1ccc(I)cc1)c1ccc2c3c(cccc13)CC2 [Example 58, N-(5-Acenaphthyl)-N-(4-iodobenzyl)guanidine.HCl] | 43% |
| CCC(C)c1ccc(N(C)C(=N)N(Cc2ccc(C(C)(C)C)cc2)c2ccc(C(C)CC)cc2)cc1.Cl (stereo not drawn) [Example 84, N-(4-sec-Butylphenyl)-N-(4-tert-butylbenzyl)-N′-(4-sec-butylphenyl)-N′-(methyl)guanidine.HCl] | 37% |
| Cl.N=C(N)N(Cc1ccc(OCc2ccccc2)cc1)c1ccc(OCc2ccccc2)cc1 [Example 67, N-(4-Benzyloxyphenyl)-N-(4-benzyloxybenzyl)guanidine.HCl] | 36% |
| CCCCCOc1cccc(N(Cc2ccc(C(C)(C)C)cc2)C(=N)N)c1.Cl [Example 64, N-(3-Pentoxyphenyl)-N-(4-tert-butylbenzyl)guanidine.HCl] | 41% |
| Cl.N=C(N)N(Cc1ccc(OCc2ccccc2)cc1)c1ccc2c3c(cccc13)CC2 [Example 65, N-(5-Acenaphthyl)-N-(4-benzyloxybenzyl)guanidine.HCl] | 42% |
| Br.CCC(C)c1cccc(NC(=N)Nc2cccc(C(C)CC)c2)c1 (stereo not drawn) [Example 34, N,N′-Bis-(3-sec-butylphenyl)guanidine.HBr] | 63% |
| CCCCCN(C(=N)Nc1ccc(C(C)CC)cc1)c1ccc(C(C)CC)cc1.Cl (stereo not drawn) [Example 46, N,N′-(sec-Butylphenyl)-N′-(n-pentyl)guanidine.HCl] | 100% |
| Cl.N=C(N)N(Cc1cccc(OCc2ccccc2)c1)c1ccc2c3c(cccc13)CC2 [Example 68, N-(5-Acenaphthyl)-N-(3-benzyloxybenzyl)guanidine.HCl] | 76% |
| CCC(C)c1ccc(N(Cc2ccc(OCc3ccccc3)cc2)C(=N)N)cc1.Cl (stereo not drawn) [Example 66, N-(4-sec-Butylphenyl)-N-(4-benzyloxybenzyl)guanidine.HCl] | 54% |
| CS(=O)(=O)O.N=C(Nc1ccc2c3c(cccc13)CC2)N1CCCc2ccccc21 [Example 7, N-(5-Acenaphthyl)-N′-(1,2,3,4-tetrahydroquinolinyl)guanidine.mesylate] | 20% |

same assay, conditions: 3 μM compound, rat brain synaptosomes

| Structure (SMILES) | % Inhibition of ^3H-Glu Rel @ 3 μM |
| --- | --- |
| CS(=O)(=O)O.N=C(Nc1ccc2c3c(cccc13)CC2)N1CCCc2ccccc21 [Example 7, N-(5-Acenaphthyl)-N′-(1,2,3,4-tetrahydroquinolinyl)guanidine.mesylate] | 16% |
